Measured values as given in ChEMBL document CHEMBL3997842, “Discovery of novel BTK inhibitors with carboxylic acids” (Bioorg Med Chem Lett, 2017).
Blank lines part the entries; values can stand above or below the molecule they belong to.

Key:
HeLa = test: Inhibition of [3H]-adenosine uptake in human HeLa cells preincubated for 30 mins followed by [3H]-adenosine addition measured after 60 mins by PMT-based radiometric detection method; format: cell-based; details: 1 h
[1] = Apparent permeability of the compound; format: physicochemical; details: not told
[2] = biological target: T1, Tyrosine-protein kinase BTK (Homo sapiens, UniProt Q06187); test: Inhibition of 6-His-tagged recombinant full length BTK (unknown origin) expressed in baculovirus-transfected Sf9 cells using Biotin-EQEDEPEGDYFEWLE-NH2 as substrate preincubated for 60 mins followed by substrate addition measured after 120 mins by LANCE TR-FRET assay
T1 sequence (Q06187 whole entry): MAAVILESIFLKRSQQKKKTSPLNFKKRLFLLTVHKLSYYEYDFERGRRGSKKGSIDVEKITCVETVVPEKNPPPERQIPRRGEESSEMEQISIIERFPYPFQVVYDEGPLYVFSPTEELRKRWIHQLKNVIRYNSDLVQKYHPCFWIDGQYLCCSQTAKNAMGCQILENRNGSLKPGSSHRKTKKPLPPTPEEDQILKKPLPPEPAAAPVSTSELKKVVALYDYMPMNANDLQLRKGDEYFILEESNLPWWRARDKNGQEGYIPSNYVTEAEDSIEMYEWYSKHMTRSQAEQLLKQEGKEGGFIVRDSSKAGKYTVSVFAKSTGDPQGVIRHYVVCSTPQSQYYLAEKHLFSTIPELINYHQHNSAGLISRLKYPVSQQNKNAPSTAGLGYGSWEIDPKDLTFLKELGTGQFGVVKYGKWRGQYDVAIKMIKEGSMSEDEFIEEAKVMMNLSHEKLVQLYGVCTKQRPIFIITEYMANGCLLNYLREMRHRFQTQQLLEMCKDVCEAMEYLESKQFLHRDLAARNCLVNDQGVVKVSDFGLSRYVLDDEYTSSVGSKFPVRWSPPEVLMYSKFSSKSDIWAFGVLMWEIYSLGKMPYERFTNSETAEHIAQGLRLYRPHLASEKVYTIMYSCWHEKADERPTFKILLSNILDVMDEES

[3] = biological target: T1, Tyrosine-protein kinase BTK; test: Inhibition of BTK in human PBMC
[4] = Oral bioavailability in rat; format: ADME, organism-based; details: in vivo
[5] = biological target: Voltage-gated inwardly rectifying potassium channel KCNH2 (Homo sapiens, UniProt Q12809); test: Inhibition of human ERG
Sequence of Voltage-gated inwardly rectifying potassium channel KCNH2 (Q12809 whole entry): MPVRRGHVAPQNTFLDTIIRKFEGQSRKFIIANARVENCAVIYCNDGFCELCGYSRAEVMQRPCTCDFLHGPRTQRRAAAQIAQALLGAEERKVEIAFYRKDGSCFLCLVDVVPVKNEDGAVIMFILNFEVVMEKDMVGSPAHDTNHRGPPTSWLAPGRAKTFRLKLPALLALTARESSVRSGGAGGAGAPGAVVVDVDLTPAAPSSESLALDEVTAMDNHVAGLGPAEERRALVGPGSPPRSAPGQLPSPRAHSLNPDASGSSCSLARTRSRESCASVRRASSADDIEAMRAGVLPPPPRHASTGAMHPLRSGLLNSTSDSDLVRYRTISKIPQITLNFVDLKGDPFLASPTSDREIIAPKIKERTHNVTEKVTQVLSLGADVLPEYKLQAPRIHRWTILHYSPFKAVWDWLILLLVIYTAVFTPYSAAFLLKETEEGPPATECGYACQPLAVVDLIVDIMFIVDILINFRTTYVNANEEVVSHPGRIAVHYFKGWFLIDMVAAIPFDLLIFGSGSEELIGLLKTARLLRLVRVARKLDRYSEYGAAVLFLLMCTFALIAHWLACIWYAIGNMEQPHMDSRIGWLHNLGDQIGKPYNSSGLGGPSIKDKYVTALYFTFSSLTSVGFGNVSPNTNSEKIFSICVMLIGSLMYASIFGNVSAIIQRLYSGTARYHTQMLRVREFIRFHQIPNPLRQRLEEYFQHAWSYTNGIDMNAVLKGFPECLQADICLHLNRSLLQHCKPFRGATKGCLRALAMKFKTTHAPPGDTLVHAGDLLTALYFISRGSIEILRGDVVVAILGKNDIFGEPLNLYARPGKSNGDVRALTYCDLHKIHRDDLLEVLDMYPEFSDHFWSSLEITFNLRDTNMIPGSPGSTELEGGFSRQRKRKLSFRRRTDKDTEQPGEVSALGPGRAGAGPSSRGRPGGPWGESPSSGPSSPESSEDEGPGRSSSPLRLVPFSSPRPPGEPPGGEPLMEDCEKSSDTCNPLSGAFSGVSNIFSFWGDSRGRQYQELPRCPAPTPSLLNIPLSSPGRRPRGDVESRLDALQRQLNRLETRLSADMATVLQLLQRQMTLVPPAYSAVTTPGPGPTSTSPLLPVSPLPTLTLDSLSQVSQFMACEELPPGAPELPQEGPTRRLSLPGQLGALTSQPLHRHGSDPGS

[6] = biological target: Voltage-dependent L-type calcium channel subunit alpha-1C (Homo sapiens, UniProt Q13936); test: Inhibition of Cav1.2 (unknown origin)
Sequence of Voltage-dependent L-type calcium channel subunit alpha-1C (Q13936 whole entry): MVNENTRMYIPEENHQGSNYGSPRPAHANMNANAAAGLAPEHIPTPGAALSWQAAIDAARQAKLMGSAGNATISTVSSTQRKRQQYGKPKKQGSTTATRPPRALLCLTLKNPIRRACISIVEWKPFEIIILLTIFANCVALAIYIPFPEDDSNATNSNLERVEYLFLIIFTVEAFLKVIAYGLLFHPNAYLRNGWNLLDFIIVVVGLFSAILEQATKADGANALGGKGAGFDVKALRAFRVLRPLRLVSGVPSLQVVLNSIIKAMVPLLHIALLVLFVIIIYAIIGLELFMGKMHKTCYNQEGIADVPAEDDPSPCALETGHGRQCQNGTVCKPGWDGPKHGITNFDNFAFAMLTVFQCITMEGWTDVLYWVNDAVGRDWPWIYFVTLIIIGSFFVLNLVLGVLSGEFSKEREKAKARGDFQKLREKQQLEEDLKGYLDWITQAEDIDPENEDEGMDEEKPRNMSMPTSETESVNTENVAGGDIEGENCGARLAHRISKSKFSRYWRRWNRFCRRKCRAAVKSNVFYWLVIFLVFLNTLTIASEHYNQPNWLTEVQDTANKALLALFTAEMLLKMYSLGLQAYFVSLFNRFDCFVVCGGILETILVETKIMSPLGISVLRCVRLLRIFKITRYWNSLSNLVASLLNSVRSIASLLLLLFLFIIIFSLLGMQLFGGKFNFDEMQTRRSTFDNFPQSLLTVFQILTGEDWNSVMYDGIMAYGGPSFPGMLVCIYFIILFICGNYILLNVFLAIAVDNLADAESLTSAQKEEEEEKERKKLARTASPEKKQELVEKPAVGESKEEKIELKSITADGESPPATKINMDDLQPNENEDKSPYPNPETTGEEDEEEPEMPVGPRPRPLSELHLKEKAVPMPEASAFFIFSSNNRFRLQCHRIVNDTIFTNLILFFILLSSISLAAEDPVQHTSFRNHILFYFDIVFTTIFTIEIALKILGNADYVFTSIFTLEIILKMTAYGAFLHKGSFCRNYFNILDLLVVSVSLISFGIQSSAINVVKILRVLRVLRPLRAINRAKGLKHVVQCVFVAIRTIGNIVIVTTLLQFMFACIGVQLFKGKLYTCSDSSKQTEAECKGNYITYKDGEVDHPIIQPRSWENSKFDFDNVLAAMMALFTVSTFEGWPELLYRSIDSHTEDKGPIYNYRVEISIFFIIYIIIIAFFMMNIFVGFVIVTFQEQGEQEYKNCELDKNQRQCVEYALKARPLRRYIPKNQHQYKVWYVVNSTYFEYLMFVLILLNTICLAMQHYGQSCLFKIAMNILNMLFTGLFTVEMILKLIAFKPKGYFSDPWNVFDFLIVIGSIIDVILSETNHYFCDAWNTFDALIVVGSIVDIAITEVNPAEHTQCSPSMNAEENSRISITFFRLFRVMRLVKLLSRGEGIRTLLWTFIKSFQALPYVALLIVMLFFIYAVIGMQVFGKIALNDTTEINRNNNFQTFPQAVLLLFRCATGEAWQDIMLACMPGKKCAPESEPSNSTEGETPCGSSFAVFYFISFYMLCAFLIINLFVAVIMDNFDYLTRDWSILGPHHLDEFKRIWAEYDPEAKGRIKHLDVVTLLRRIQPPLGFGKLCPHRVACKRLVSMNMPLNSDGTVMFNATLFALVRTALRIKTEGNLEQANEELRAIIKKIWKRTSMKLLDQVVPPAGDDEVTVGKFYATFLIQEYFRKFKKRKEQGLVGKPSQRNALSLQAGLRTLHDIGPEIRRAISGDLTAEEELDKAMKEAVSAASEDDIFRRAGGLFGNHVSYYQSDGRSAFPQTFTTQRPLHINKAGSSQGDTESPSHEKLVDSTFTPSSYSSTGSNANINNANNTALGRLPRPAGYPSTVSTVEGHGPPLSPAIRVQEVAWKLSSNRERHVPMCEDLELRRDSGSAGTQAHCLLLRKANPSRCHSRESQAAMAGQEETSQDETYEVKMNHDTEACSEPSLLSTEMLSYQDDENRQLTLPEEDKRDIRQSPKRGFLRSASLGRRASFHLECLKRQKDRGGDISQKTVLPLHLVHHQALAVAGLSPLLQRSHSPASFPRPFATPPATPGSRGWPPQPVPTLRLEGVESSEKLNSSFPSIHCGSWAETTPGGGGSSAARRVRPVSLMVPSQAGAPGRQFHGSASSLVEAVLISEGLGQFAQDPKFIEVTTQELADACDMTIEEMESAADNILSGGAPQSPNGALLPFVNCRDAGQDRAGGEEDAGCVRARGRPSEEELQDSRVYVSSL

[7] = biological target: Sodium channel protein type 5 subunit alpha (Homo sapiens, UniProt Q14524); test: Inhibition of Nav1.5 (unknown origin)
[8] = Clearance in iv dosed rat; format: ADME, organism-based; details: in vivo
[9] = Unbound fraction in rat; format: ADME
[10] = Half life in iv dosed rat; format: ADME, organism-based; details: in vivo
[11] = Plasma clearance in rat; format: ADME
[12] = Half life in rat; format: ADME; details: in vivo
[13] = Clearance in iv dosed dog; format: ADME, organism-based, Canis lupus familiaris; details: in vivo
[14] = Half life in iv dosed dog; format: ADME, organism-based, Canis lupus familiaris; details: in vivo
[15] = Oral bioavailability in dog; format: ADME, organism-based, Canis lupus familiaris; details: in vivo

Inhibitory concentration (HeLa): 168 nM
Papp [1]: 20 ×10⁻⁶ cm/s
SMILES: Nc1nccn2c([C@@H]3CCC[C@H](c4nnc[nH]4)C3)nc(-c3ccc(C(=O)Nc4cc(C(F)(F)F)ccn4)cc3)c12

Inhibitory concentration (HeLa): 110 nM
SMILES: C[C@H]1CC[C@@H](c2nc(-c3ccc(C(=O)Nc4cc(C(F)(F)F)ccn4)cc3F)c3c(N)nccn23)CN1C(=O)C1CC1

IC50 [2]: 0.4 nM
IC50 [3]: 20 nM
bioavailability [4]: 44%
clearance [8]: 2.8 mL/min/kg
Inhibitory concentration (HeLa): 4010 nM
fraction unbound [9]: 0.003
half-life [10]: 2 h
SMILES: CC(C)[C@@]1(C(=O)O)CC[C@@](C)(c2nc(-c3ccc(C(=O)Nc4cc(C(F)(F)F)ccn4)cc3)c3c(N)nccn23)C1
IC50 [5]: > 60000 nM
IC50 [6]: 8000 nM
IC50 [7]: > 30000 nM

Inhibitory concentration (HeLa): 1927 nM
SMILES: Nc1nccn2c([C@H]3C[C@@H]4[C@H](C3)[C@H]4C(=O)O)nc(-c3ccc(C(=O)Nc4cc(C(F)(F)F)ccn4)cc3)c12

Inhibitory concentration (HeLa): 812 nM
SMILES: Nc1nccn2c(C34C5C6C3C3C4C5C63C(=O)O)nc(-c3ccc(C(=O)Nc4cc(C(F)(F)F)ccn4)cc3F)c12 (stereo unspecified)

IC50 [2]: 0.3 nM
IC50 [3]: 6 nM
Inhibitory concentration (HeLa): 274 nM
SMILES: Nc1nccn2c1c(-c1ccc(C(=O)Nc3cc(C(F)(F)F)ccn3)cc1)nc2[C@]12CCC[C@](C(=O)O)(CC1)CC2

IC50 [2]: 0.1 nM
IC50 [3]: 18 nM
bioavailability [4]: 22%
clearance [8]: 9 mL/min/kg
Inhibitory concentration (HeLa): 6073 nM
fraction unbound [9]: 0.002
half-life [10]: 3 h
SMILES: C[C@]1(C(=O)O)CCC[C@@](C)(c2nc(-c3ccc(C(=O)Nc4cc(C(F)(F)F)ccn4)cc3)c3c(N)nccn23)C1
IC50 [6]: 13000 nM
IC50 [7]: > 30000 nM

clearance [11]: 139 mL/min/kg
half-life [12]: 0.8 h
bioavailability [4]: 30%
SMILES: CCOc1cc(C(=O)Nc2cc(C(F)(F)F)ccn2)ccc1-c1nc(C23CCC(C(=O)O)(CC2)CC3)n2ccnc(N)c12
IC50 [6]: 15000 nM
IC50 [7]: > 30000 nM

Inhibitory concentration (HeLa): 45 nM
SMILES: NC(=O)[C@H]1CCC[C@@H](c2nc(-c3ccc(C(=O)Nc4cc(C(F)(F)F)ccn4)cc3)c3c(N)nccn23)C1

IC50 [2]: 0.2 nM
IC50 [3]: 8 nM
bioavailability [4]: 39%
clearance [8]: 2 mL/min/kg
Inhibitory concentration (HeLa): 1699 nM
fraction unbound [9]: 0.001
half-life [10]: 2.4 h
SMILES: C[C@]1(C(=O)O)CC[C@@](C)(c2nc(-c3ccc(C(=O)Nc4cc(C(F)(F)F)ccn4)cc3)c3c(N)nccn23)C1
IC50 [6]: 19000 nM
IC50 [7]: > 30000 nM

IC50 [2]: 1 nM
IC50 [3]: 17 nM
bioavailability [4]: 75%
clearance [8]: 13 mL/min/kg
Inhibitory concentration (HeLa): 1452 nM
fraction unbound [9]: 0.001
half-life [10]: 5 h
clearance [13]: 13 mL/min/kg
half-life [14]: 5.8 h
bioavailability [15]: 77%
SMILES: C[C@]1(C(=O)O)CC[C@@](C)(c2nc(-c3ccc(C(=O)Nc4cc(C(F)(F)F)ccn4)cc3)c3c(N)nccn32)CC1
IC50 [5]: > 60000 nM
IC50 [6]: 15000 nM
IC50 [7]: > 30000 nM

Inhibitory concentration (HeLa): > 10000 nM
SMILES: Nc1nccn2c1c(-c1ccc(C(=O)Nc3cc(C(F)(F)F)ccn3)cc1)nc2[C@H]1CC[C@H](C(=O)O)CC1

IC50 [2]: 0.2 nM
IC50 [3]: 5 nM
Inhibitory concentration (HeLa): 308 nM
SMILES: Nc1nccn2c(C34CCC(C(=O)O)(CC3)CC4)nc(-c3ccc(C(=O)Nc4cc(C(F)(F)F)ccn4)cc3)c12

clearance [11]: 7.9 mL/min/kg
half-life [12]: 1.2 h
bioavailability [4]: 2%
Papp [1]: 7 ×10⁻⁶ cm/s
SMILES: Nc1nccn2c([C@@H]3CCC[C@H](C(=O)O)C3)nc(-c3ccc(C(=O)Nc4cc(C(F)(F)F)ccn4)cc3)c12
IC50 [5]: > 60000 nM
IC50 [6]: > 30000 nM
IC50 [7]: > 30000 nM

fraction unbound [9]: 0.002
SMILES: C[C@]1(C(=O)O)CCC[C@@H](c2nc(-c3ccc(C(=O)Nc4cc(C(F)(F)F)ccn4)cc3)c3c(N)nccn23)C1 (racemic)

Inhibitory concentration (HeLa): 5396 nM
SMILES: C[C@]1(C(=O)O)CC[C@@H](c2nc(-c3ccc(C(=O)Nc4cc(C(F)(F)F)ccn4)cc3)c3c(N)nccn23)C1

Inhibitory concentration (HeLa): > 10000 nM
SMILES: Nc1nccn2c1c(-c1ccc(C(=O)Nc3cc(C(F)(F)F)ccn3)cc1)nc2[C@H]1CC[C@@H](C(=O)O)CC1

Inhibitory concentration (HeLa): 2492 nM
SMILES: CC1(C(=O)O)CCC(c2nc(-c3ccc(C(=O)Nc4cc(C(F)(F)F)ccn4)cc3)c3c(N)nccn23)CC1 (stereo unspecified)

IC50 [2]: 0.4 nM
IC50 [3]: 67 nM
Inhibitory concentration (HeLa): 6476 nM
SMILES: Nc1nccn2c(C34CC(C(=O)O)(C3)C4)nc(-c3ccc(C(=O)Nc4cc(C(F)(F)F)ccn4)cc3)c12

Inhibitory concentration (HeLa): 155 nM
Papp [1]: 26 ×10⁻⁶ cm/s
SMILES: Cn1nnnc1[C@H]1CCC[C@@H](c2nc(-c3ccc(C(=O)Nc4cc(C(F)(F)F)ccn4)cc3)c3c(N)nccn23)C1

Inhibitory concentration (HeLa): 9086 nM
SMILES: Nc1nccn2c([C@@H]3CCC[C@H](c4noc(=O)[nH]4)C3)nc(-c3ccc(C(=O)Nc4cc(C(F)(F)F)ccn4)cc3)c12

Inhibitory concentration (HeLa): > 10000 nM
Papp [1]: 3 ×10⁻⁶ cm/s
SMILES: Nc1nccn2c([C@@H]3CCC[C@H](c4nn[nH]n4)C3)nc(-c3ccc(C(=O)Nc4cc(C(F)(F)F)ccn4)cc3)c12

IC50 [2]: 0.2 nM
IC50 [3]: 9 nM
Inhibitory concentration (HeLa): 459 nM
SMILES: Nc1nccn2c1c(-c1ccc(C(=O)Nc3cc(C(F)(F)F)ccn3)cc1)nc2[C@]12CC[C@](C(=O)O)(CC1)C2

Inhibitory concentration (HeLa): 5600 nM
Papp [1]: 2 ×10⁻⁶ cm/s
SMILES: CS(=O)(=O)NC(=O)[C@H]1CCC[C@@H](c2nc(-c3ccc(C(=O)Nc4cc(C(F)(F)F)ccn4)cc3)c3c(N)nccn23)C1

Inhibitory concentration (HeLa): 44 nM
SMILES: Nc1nccn2c([C@@H]3CCC[C@H](c4n[nH]c(=O)o4)C3)nc(-c3ccc(C(=O)Nc4cc(C(F)(F)F)ccn4)cc3)c12

Inhibitory concentration (HeLa): 150 nM
Papp [1]: 28 ×10⁻⁶ cm/s
SMILES: Cn1nnc([C@H]2CCC[C@@H](c3nc(-c4ccc(C(=O)Nc5cc(C(F)(F)F)ccn5)cc4)c4c(N)nccn34)C2)n1
